# From patent publication US6765085B2, “Receptor kinase, BIN1” (The Salk Institute for Biological Studies, priority 1997, dated 2004)
# Where two headings read alike, the source gives them in different places.
# Columns and labels:
# [1] = molecular target: T1, BIN1-GFP (Arabidopsis thaliana, UniProt O22476); format: binding; set-up: expressed in transfected cells; host or cells: transgenic Arabidopsis plants (microsomal fractions, or anti-GFP immunoprecipitate from extracts)
# [2] = system: plants; conditions: cited from earlier work
# [3] = molecular target: T1, BIN1-GFP; conditions: membrane fractions of BIN1-GFP transgenic plants
# [4] = system: BIN1; experiment: BL induced BIN1 phosphorylation in seedlings (mobility shift on SDS-PAGE, immunoblot); format: in vivo, Arabidopsis; conditions: BIN1-6 and BIN1117 mutant seedlings, 1 μM BL for 1 hour
# Protocol: (§3) Proteins were analyzed by 4% SDS-PAGE, blotted, and probed with anti-BIN1N antibody. b.
# (§4) Samples were analyzed by SDS-PAGE using 4% gels and western blotting as described above. […] For phosphatase treatment, SDS was removed from protein samples using the SDS-OUT kit (Pierce), and the proteins were then treated with alkaline phosphatase (Boehringer Mannheim) and protein phosphatase I (PPI, New England Biolab) under conditions recommended by the manufacturer and as described.
# [5] = molecular target: T2, BIN1-116, Q583-stop (70-aa island) (Arabidopsis thaliana, UniProt O22476); format: binding; conditions: BIN1-116 mutant, compared with wild type
# T2 construct: microsomal fractions of wild type (WT), det2, BIN1-6, BIN1-116, BIN1-104, and BIN1-102 mutant plants; from tissue; host or cells: microsomal fractions of BIN1-116 mutant Arabidopsis plants
# T2 sequence (O22476 24-582 limits assumed): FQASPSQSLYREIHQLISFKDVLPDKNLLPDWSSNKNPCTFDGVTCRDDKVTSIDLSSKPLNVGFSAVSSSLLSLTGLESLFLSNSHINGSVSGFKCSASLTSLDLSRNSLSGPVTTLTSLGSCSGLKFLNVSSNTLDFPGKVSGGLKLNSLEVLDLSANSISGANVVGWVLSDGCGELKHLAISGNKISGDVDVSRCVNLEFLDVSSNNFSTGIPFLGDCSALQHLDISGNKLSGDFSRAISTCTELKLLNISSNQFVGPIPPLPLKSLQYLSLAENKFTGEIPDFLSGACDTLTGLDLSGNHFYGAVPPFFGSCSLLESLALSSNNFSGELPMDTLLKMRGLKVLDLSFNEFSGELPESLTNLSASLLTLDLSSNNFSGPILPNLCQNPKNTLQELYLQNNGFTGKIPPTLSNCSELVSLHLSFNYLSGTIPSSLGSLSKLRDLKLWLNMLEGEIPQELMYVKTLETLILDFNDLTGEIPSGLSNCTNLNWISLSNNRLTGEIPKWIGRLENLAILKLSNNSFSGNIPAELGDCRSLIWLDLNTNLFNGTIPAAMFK
# Text: (§1) Mutations in large numbers of BIN1 alleles implicate the functional importance of the cytoplasmic kinase domain and the 70-aa island of BIN1's extracellular domain.
# (§2) Tetrahedron Lett. 39, 7525-7528 (1998). […] Science 288, 2360-3 (2000).
# [6] = molecular target: T3, BIN1-6, G644-D (70-aa island) (Arabidopsis thaliana, UniProt O22476, G644D); format: binding; conditions: BIN1-6 mutant, compared with wild type
# T3 construct: microsomal fractions of wild type (WT), det2, BIN1-6, BIN1-116, BIN1-104, and BIN1-102 mutant plants; from tissue; host or cells: microsomal fractions of BIN1-6 mutant Arabidopsis plants
# Text: as §1, §2
# [7] = molecular target: T4, BIN1 (Arabidopsis thaliana, UniProt O22476); experiment: Binding kinetic studies of specific BL binding; set-up: from tissue; host or cells: wild-type Arabidopsis seedlings (microsomal fractions in A2; whole seedlings in A10)
# T4 sequence (O22476 24-1196): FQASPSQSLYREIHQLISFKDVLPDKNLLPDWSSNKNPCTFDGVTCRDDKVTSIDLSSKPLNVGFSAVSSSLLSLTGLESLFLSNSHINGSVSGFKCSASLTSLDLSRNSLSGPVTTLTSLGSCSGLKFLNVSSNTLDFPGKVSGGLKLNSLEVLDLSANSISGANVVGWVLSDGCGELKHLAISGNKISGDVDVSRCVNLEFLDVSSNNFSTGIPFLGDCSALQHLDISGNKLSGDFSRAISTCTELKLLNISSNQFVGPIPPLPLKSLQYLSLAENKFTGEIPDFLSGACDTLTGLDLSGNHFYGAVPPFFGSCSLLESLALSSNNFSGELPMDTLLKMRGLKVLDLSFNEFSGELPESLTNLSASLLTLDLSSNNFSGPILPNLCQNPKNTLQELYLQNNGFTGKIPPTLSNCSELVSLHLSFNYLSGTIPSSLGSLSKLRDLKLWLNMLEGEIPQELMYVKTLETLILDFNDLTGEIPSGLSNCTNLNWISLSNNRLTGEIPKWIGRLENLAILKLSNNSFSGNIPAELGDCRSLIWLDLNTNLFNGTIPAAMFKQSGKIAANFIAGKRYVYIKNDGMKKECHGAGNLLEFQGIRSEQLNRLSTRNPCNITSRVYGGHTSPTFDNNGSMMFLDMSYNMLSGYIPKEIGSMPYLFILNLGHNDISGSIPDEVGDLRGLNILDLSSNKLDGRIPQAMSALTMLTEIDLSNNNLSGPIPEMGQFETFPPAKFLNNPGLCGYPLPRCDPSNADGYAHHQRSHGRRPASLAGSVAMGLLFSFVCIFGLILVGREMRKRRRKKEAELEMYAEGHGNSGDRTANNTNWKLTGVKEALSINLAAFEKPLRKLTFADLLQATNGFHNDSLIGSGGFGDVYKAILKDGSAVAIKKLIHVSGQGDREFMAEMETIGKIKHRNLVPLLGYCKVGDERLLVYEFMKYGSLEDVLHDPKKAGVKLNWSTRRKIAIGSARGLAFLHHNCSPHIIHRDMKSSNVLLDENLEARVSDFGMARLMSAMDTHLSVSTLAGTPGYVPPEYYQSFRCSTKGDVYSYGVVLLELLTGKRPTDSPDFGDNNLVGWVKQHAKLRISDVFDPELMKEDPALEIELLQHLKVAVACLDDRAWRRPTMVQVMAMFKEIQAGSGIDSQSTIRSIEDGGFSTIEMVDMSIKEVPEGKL
# Text: as §2
# [8] = molecular target: T4, BIN1; experiment: BL induced BIN1 phosphorylation in seedlings (mobility shift on SDS-PAGE, immunoblot); format: in vivo; set-up: from tissue; host or cells: wild-type Arabidopsis seedlings (microsomal fractions in A2; whole seedlings in A10); conditions: det2 BL biosynthetic mutant seedlings, 1 μM BL for 1 hour
# Protocol: as §3, §4
# [9] = molecular target: T4, BIN1; conditions: membrane fractions of wild-type plants
# T1 sequence (O22476 with tags, fused parts or gaps): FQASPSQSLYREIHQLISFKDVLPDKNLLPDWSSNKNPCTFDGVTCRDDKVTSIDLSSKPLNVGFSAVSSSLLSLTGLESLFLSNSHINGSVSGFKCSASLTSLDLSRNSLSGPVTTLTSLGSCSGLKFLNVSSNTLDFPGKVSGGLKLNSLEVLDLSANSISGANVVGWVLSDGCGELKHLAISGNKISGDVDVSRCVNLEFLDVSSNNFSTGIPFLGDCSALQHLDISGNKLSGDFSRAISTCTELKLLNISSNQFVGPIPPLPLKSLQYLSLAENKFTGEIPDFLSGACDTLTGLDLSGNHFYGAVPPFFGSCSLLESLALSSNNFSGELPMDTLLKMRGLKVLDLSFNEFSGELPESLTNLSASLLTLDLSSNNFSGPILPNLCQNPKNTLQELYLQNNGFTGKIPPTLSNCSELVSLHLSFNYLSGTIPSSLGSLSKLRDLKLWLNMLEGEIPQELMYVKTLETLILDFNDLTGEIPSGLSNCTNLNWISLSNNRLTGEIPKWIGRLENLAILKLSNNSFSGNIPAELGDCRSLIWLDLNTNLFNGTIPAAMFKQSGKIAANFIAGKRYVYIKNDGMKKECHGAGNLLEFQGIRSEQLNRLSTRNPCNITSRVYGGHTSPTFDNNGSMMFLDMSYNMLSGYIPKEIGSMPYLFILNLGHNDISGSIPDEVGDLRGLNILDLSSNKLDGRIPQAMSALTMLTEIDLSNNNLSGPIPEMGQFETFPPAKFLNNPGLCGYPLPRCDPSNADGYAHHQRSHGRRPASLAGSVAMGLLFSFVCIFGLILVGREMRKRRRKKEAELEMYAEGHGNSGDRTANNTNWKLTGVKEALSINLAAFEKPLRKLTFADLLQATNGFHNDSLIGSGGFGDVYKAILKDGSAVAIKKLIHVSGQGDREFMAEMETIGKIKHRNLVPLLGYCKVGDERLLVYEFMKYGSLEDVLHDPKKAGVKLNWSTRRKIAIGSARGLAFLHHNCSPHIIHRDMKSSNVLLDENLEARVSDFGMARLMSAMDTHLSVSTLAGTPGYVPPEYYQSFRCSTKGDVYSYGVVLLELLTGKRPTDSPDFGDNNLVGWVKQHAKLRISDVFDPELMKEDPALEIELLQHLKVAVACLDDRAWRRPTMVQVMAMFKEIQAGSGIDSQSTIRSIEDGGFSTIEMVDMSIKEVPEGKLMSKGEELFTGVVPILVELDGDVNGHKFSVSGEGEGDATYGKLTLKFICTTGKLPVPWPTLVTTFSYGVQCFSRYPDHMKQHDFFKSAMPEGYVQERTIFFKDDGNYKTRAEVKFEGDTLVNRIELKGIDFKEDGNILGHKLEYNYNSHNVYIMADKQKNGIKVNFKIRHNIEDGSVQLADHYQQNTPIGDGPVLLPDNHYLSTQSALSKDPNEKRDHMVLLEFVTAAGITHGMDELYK
# T3 sequence (O22476 24-1196 G644D): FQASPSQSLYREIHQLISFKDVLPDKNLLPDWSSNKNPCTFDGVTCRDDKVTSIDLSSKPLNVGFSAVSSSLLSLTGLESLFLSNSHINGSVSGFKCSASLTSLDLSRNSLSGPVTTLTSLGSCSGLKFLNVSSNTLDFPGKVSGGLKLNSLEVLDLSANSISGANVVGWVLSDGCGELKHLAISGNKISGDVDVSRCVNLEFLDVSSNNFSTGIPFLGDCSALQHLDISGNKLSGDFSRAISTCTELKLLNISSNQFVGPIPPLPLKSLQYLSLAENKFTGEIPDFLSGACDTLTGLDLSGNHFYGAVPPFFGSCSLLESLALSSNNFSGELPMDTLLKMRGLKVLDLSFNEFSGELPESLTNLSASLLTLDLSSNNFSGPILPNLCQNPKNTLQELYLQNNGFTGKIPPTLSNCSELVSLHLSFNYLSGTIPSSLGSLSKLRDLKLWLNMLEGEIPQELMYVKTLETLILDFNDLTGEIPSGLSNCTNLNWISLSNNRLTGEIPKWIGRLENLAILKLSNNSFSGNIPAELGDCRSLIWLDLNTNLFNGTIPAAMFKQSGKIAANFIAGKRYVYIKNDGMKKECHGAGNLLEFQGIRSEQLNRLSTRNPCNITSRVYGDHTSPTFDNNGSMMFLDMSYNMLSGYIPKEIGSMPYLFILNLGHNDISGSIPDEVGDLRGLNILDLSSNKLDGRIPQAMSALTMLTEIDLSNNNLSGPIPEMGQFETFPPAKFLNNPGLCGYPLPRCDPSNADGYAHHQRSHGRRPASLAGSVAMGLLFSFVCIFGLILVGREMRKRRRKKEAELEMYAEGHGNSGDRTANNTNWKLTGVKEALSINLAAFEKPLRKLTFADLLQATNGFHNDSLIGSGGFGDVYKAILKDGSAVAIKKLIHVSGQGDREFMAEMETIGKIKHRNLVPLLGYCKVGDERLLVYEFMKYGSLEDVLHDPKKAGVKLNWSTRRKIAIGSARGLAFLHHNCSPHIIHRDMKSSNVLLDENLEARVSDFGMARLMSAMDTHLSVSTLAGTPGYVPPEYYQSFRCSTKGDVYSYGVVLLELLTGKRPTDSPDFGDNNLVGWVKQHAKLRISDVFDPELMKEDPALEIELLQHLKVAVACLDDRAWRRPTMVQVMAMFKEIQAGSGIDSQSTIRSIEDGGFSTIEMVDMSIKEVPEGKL
molecule,measurement,setting,value
C[C@H]([C@H](O)CCC(C)(C)O)[C@H]1CC[C@@]2(O)C3=CC(=O)[C@@H]4C[C@@H](O)[C@@H](O)C[C@]4(C)[C@H]3CC[C@]12C [ecdysone],IC50,[1],> 10 µM
same,biological activity in plants,[2],lack of biological activity
"2,3,22,23-O-tetramethylBL [Me-BL]",biological activity in plants,[2],lack of biological activity
"CC(C)[C@H](C)[C@@H](O)[C@H](O)[C@@H](C)[C@H]1CC[C@H]2[C@@H]3COC(=O)[C@H]4C[C@H](O)[C@H](O)C[C@]4(C)[C@H]3CC[C@]12C [BL, brassinolide]",Bmax (BL binding sites),[3],2.66 pmole mg^−1 membrane protein
same,BL-induced BIN1 phosphorylation,[4],not
same,BL binding activity,[5],greatly reduced
same,BL binding activity,[6],greatly reduced
same,time to 50% competition by unlabelled BL (reversibility of binding),[7],less than 1 min
same,time for specific BL binding to reach equilibrium,[7]; incubation at 25° C.,≤ 15 min
same,BL-induced BIN1 phosphorylation,[8],also observed
same,Bmax (BL binding sites),[9],0.23 pmole mg^−1 membrane protein
CC(C)[C@H](C)[C@@H](O)[C@H](O)[C@@H](C)[C@H]1CC[C@H]2[C@@H]3CC(=O)[C@H]4C[C@H](O)[C@H](O)C[C@]4(C)[C@H]3CC[C@]12C [castasterone],"relative binding affinity (RBA, ratio between IC50 of a competitor and that of BL)",[1]; membrane fraction of BIN1-GFP plants,4-5 times lower than BL
same,IC50,"[1]; read-out: 50% inhibition concentration, IC50, of [3H]-BL binding, membrane fraction of BIN1-GFP plants",0.34 µM
same,activity in bioassays relative to BL,[2]; bioassays,about 5 times less active than BL
